Patent US5731343A (The Scripps Research Institute, priority 1995, dated 1998)
Read-outs that look alike come from different tables or passages of the source.

Experiments:
[1] = test system: COX-2; experiment: Recovery of COX activity (COX-2 expression) in aspirin-pretreated rat alveolar macrophages; type: cell-based; conditions: read-out: IC50 suppression of LPS-induced expression of COX-2
[2] = test system: c-raf; conditions: human T cells; June et al. 1990; cited from earlier work
[3] = test system: p53/56^lyn; experiment: Western blot analysis of p53/56^lyn in LPS-stimulated macrophages; type: cell-based, rat; conditions: 4 hours pretreatment; LPS (10 μg/ml)
[4] = test system: tyrosine phosphorylated proteins (Src family tyrosine kinases); experiment: Antiphosphotyrosine immunoblotting of LPS-stimulated macrophages; type: cell-based; conditions: 4 hours pretreatment; LPS (10 μg/ml); rat alveolar macrophages
[5] = test system: p60^v-src; conditions: cited from earlier work
[6] = test system: p60^v-src; conditions: Uehara et al. 1989; cited from earlier work
[7] = test system: RAW 264.7; conditions: Weinstein et al., cited from earlier work
[8] = test system: cyclooxygenase; conditions: intact macrophages; Glaser et al. 1993; cited from earlier work
[9] = test system: murine resident peritoneal macrophages; conditions: stimulated with zymosan, calcium ionophore A23187, and PMA; Glaser et al.; cited from earlier work
[10] = biological target: T1, endogenous COX (Rattus norvegicus, UniProt Q63921); experiment: Inactivation of endogenous COX activity in macrophages by aspirin; type: cell-based; conditions: aspirin 500 μM, 2.5 hours
T1 construct: endogenous in cells; host or cells: alveolar macrophages of Sprague-Dawley rats (bronchoalveolar lavage)
T1 sequence (Q63921 27-602): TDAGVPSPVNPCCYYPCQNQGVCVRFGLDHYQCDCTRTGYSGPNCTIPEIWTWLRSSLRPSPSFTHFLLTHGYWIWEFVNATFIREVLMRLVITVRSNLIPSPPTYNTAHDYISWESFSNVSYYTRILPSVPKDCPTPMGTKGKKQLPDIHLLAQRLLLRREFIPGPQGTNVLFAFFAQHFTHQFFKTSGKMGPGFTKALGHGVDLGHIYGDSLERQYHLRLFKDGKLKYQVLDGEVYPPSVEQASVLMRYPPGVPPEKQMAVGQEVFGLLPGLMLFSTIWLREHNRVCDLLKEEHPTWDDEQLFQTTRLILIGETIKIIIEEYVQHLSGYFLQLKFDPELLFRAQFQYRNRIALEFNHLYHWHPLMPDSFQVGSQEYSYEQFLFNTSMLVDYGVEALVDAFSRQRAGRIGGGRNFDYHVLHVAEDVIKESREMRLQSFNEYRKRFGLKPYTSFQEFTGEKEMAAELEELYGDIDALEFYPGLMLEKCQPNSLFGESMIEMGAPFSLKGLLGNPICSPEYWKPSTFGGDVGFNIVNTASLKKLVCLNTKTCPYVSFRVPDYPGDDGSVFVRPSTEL
Text: In the previous study using the same cell type, it was shown that increased COX activity in LPS-stimulated macrophages which were pretreated with aspirin, results from selective expression of COX-2 (Lee, et al., supra). Therefore, de novo synthesized COX-2 in aspirin-pretreated macrophages can be accurately and conveniently quantitated by measuring recovered COX activity.

[11] = biological target: p60^c-src (Homo sapiens, UniProt P12931)
Sequence of p60^c-src (P12931 whole entry): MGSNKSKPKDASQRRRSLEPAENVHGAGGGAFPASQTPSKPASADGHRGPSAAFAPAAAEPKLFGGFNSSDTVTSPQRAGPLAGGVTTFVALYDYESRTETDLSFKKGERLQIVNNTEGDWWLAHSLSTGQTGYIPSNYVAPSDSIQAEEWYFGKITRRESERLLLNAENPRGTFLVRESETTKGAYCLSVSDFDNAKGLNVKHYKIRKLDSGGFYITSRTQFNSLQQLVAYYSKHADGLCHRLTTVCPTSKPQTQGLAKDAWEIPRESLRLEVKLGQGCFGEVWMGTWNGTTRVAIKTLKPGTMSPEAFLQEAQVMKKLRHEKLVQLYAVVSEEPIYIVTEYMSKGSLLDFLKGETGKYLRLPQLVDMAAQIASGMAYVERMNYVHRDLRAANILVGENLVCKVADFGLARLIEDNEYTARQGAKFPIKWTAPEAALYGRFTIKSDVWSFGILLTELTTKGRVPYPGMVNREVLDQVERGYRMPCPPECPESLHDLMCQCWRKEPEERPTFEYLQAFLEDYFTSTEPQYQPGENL

[12] = test system: mitogen activated protein kinases (MAPK-1, MAPK-2 and p38); conditions: 4 hours pretreatment; LPS (1 μg/ml); RAW 264.7
[13] = test system: tumor cells; conditions: U.S. Pat. Nos. 3,428,526 and 4,228,079; cited from earlier work
[14] = test system: COX-2 mRNA; experiment: cells; conditions: Rattus norvegicus, Macrophage, 2 h, read-out: inhibition of COX-2 mRNA levels

CO[C@H]1[C@@H](OC)C[C@H](C)[C@@H](OC)C2=CC(=O)C=C(NC(=O)/C(C)=C/C=C\[C@H](OC)[C@@H](OC(N)=O)/C(C)=C/[C@@H]1C)C2=O [herbimycin A]
IC50 [1]: 0.052 µM | PMA-stimulated c-raf activity [2]: resistant to the inhibitory effects | levels of p53/56^lyn [3]: significant reduction levels of p53/56^lyn | levels of tyrosine phosphorylated proteins [4]: suppressed levels of tyrosine phosphorylated proteins | IC50 ([5]; Uehara et al. 1989, read-out: IC50 in vitro kinase activity): 12 µM | inhibitory effect on p60^v-src kinase activity in presence of sulfhydryl compounds ([5]; sulfhydryl compounds): abolished | degradation of p60^v-src [6]: increased the degradation | LPS-induced release of [^3 H]-arachidonic acid metabolites ([7]; LPS): dramatically inhibits | PMA-induced release of [^3 H]-arachidonic acid metabolites ([7]; PMA): only weakly inhibits

O=c1c(-c2ccc(O)cc2)coc2cc(O)cc(O)c12 [genistein]
IC50 [1]: 22 µM | inhibitory effect on cyclooxygenase activity [8]: no inhibitory effect | PGE2 production [9]: inhibited

N#CC(C#N)=Cc1cc(O)c(O)c(O)c1 [tyrphostin-25]
inhibitory effect on cyclooxygenase activity [8]: no inhibitory effect | PGE2 production [9]: inhibited

N#CC(=Cc1ccc(O)c(O)c1)C(=O)Nc1ccccc1 [tryphostin (AG-494)]
IC50 ([1]; LPS): 357 µM

CC(=O)Oc1ccccc1C(=O)O [aspirin]
inhibition at 500 µM [10]: > 90%

C[C@@H]1C[C@H]2O[C@@H]2/C=C\C=C\C(=O)Cc2c(Cl)c(O)cc(O)c2C(=O)O1 [Radicicol, 5-chloro-6-(7,8-epoxy-10-hydroxy-2-oxo-3,5-undecadienyl)-β-resorcyclic acid μ-lactone]
IC50 [11]: 8.2 µM | inhibition of tyrosine phosphorylation of MAPKs [12]: inhibited tyrosine phosphorylation of MAPKs in a dose dependent fashion | inhibition of p60^v-src ([5]; Kwon et al. 1992): inhibitor of p60^v-src | inhibitory effect in vitro on the growth of tumor cells [13]: strong inhibitory effect | inhibition at 1 µg/mL [14]: 50%
